Like-named read-outs stand apart in the source and are kept apart here.
Experiments:
[1] = Serum PFAA concentrations in family members during intermittent phlebotomy (HPLC-MS/MS); type: in vivo, human; conditions: for Serum concentration before treatment: before phlebotomy; for Serum concentration after treatment: after phlebotomy
Source text: After receiving informed consent, intermittent phlebotomy was undertaken at an overall rate (Table 2) that was equal to or less than the maximum rate of what is done for routine blood donations at the Canadian Blood Services: ∼500 ccs of whole blood every 56 days. Frequency and timing of blood removal was not consistent between family members because of their personal availability, success at each time of venesection, and compliance of each participant. […] Mineral supplementation was discussed and was taken by each participant.
All serum samples were submitted to ALS Laboratories (Edmonton, AB) for quantitative analysis of PFAAs (see Supporting Information, S1 Table). Samples were extracted by solid phase extraction and concentrations of PFHxS, PFOS, and PFOA were determined using high performance liquid chromatography/tandem mass spectrometry. Formic acid (0.1 M) along with a mixture of isotopically labeled PFAAs (Wellington Laboratories, Guelph, Ontario) were added to 1.0 mL of serum. The mixture was vortexed, sonicated, and subjected to solid phase extraction. The extract was concentrated to 100 uL and an instrument performance internal standard was added along with 200 uL of 90% 20 mM aqueous acetic acid/10% methanol. Procedural blanks were run with each set of samples, and method limits of quantification (LOQ) were 0.5 ng/mL for each analyte. For the few PFAA levels that fell below this LOQ (shown as hollow circles in Figs. 1–3), LOQ/√2 (i.e. 0.35 ng/mL) was substituted for purposes of data analysis. PFHxS, PFOS, and PFOA levels in all participating family members were >LOQ throughout the intervention except for 3 PFOS measurements out of 16 total measurements in the 3rd child and one PFOA measurement out of 9 total measurements in the […]. Written informed consent was given by participants (or parents in the case of children) for their clinical records to be used in this study.

[2] = set-up: method as in PMID 17805419; conditions: cited from earlier work
[3] = set-up: method as in PMID 23980546; conditions: urinary excretion, China, cited from earlier work
[4] = set-up: method as in earlier work; conditions: 2009–2011; cited from earlier work
[5] = Apparent elimination half-life (HLapp) and phlebotomy efficiency coefficient in treated family members; type: in vivo, human; conditions: family members with regular phlebotomy, except parent
Source text: To evaluate the effect of phlebotomy, versus the expected rate of intrinsic elimination, we graphically and statistically compared the observed decreasing trends in each family member (fitted to a simple exponential decay model) with reference population elimination kinetics. Specifically, for the reference population of occupationally exposed retirees, we considered: i) the 95% confidence interval of the geometric mean elimination rate for each PFAA, and ii) the fastest individual rate of elimination rate among the reference population. For comparative purposes, the concentration of each PFAA in serum on the first day of the intervention was taken as time zero, and the models were forced through this starting point.
One metric that was calculated to compare the efficiency of the phlebotomy for removal of different PFAAs in each family member was termed the phlebotomy efficiency coefficient (EC). This was based on the subtractive difference between HLapp (yrs) in each treated family member and the geometric mean HLin (yrs) of the reference population according to Equation 1 . [drawing 1] (1)

O=S(=O)(O)C(F)(F)C(F)(F)C(F)(F)C(F)(F)C(F)(F)C(F)(F)C(F)(F)C(F)(F)F [PFOS, perfluoroctane sulfonate]
Serum concentration before treatment ([1]; 1st Child): 19.3 ng/mL | Serum concentration ([1]; 1st Child, sampling date 2009.10.12): 14.3 ng/mL | Serum concentration ([1]; 1st Child, sampling date 2009.12.24): 16.1 ng/mL | Serum concentration ([1]; 1st Child, sampling date 2009.6.9): 19.3 ng/mL | Serum concentration ([1]; 1st Child, sampling date 2009.9.9): 14.8 ng/mL | Serum concentration ([1]; 1st Child, sampling date 2010.10.14): 0.73 ng/mL | Serum concentration ([1]; 1st Child, sampling date 2010.1.17): 11.3 ng/mL | Serum concentration ([1]; 1st Child, sampling date 2010.2.11): 6.84 ng/mL | Serum concentration ([1]; 1st Child, sampling date 2010.4.14): 17.9 ng/mL | Serum concentration ([1]; 1st Child, sampling date 2011.12.5): 0.93 ng/mL | Serum concentration ([1]; 1st Child, sampling date 2011.5.17, LOD=0.5ng/mL): <LOD | Serum concentration ([1]; 1st Child, sampling date 2011.8.12, LOD=0.5ng/mL): <LOD | Serum concentration ([1]; 1st Child, sampling date 2012.12.28, LOD=0.5ng/mL): <LOD | Serum concentration ([1]; 1st Child, sampling date 2012.4.24): 2.12 ng/mL | Serum concentration ([1]; 1st Child, sampling date 2012.8.21): 1.44 ng/mL | Serum concentration ([1]; 1st Child, sampling date 2013.3.30): 0.61 ng/mL | Serum concentration ([1]; 1st Child, sampling date 2013.7.30): 1.59 ng/mL | Serum concentration before treatment ([1]; 2nd Child): 59.7 ng/mL | Serum concentration ([1]; 2nd Child, sampling date 2009.10.24): 44.7 ng/mL | Serum concentration ([1]; 2nd Child, sampling date 2009.6.6): 59.7 ng/mL | Serum concentration ([1]; 2nd Child, sampling date 2009.7.2): 51.9 ng/mL | Serum concentration ([1]; 2nd Child, sampling date 2009.7.30): 51.9 ng/mL | Serum concentration ([1]; 2nd Child, sampling date 2009.8.24): 67.8 ng/mL | Serum concentration ([1]; 2nd Child, sampling date 2009.9.27): 41.4 ng/mL | Serum concentration ([1]; 2nd Child, sampling date 2010.1.3): 36.6 ng/mL | Serum concentration ([1]; 2nd Child, sampling date 2010.2.15): 47.7 ng/mL | Serum concentration ([1]; 2nd Child, sampling date 2011.10.2): 1.8 ng/mL | Serum concentration ([1]; 2nd Child, sampling date 2011.12.24): 13.9 ng/mL | Serum concentration ([1]; 2nd Child, sampling date 2011.4.27): 7.0 ng/mL | Serum concentration ([1]; 2nd Child, sampling date 2011.8.14): 4.6 ng/mL | Serum concentration ([1]; 2nd Child, sampling date 2012.12.24): 5.5 ng/mL | Serum concentration ([1]; 2nd Child, sampling date 2012.4.6): 12.2 ng/mL | Serum concentration ([1]; 2nd Child, sampling date 2013.5.11.): 9.2 ng/mL | Serum concentration ([1]; 2nd Child, sampling date 2013.7.15): 9.0 ng/mL | Serum concentration before treatment ([1]; 3rd Child): 87.3 ng/mL | Serum concentration ([1]; 3rd Child, sampling date 2009.10.11): 107.0 ng/mL | Serum concentration ([1]; 3rd Child, sampling date 2009.12.16): 48.9 ng/mL | Serum concentration ([1]; 3rd Child, sampling date 2009.6.1): 87.3 ng/mL | Serum concentration ([1]; 3rd Child, sampling date 2009.7.4): 102.9 ng/mL | Serum concentration ([1]; 3rd Child, sampling date 2009.8.7): 76.5 ng/mL | Serum concentration ([1]; 3rd Child, sampling date 2009.9.7): 113.0 ng/mL | Serum concentration ([1]; 3rd Child, sampling date 2010.1.24): 58.8 ng/mL | Serum concentration ([1]; 3rd Child, sampling date 2010.3.12): 66.3 ng/mL | Serum concentration ([1]; 3rd Child, sampling date 2010.5.23): 52.8 ng/mL | Serum concentration ([1]; 3rd Child, sampling date 2011.1.6): 18.6 ng/mL | Serum concentration ([1]; 3rd Child, sampling date 2011.11.26): 9.2 ng/mL | Serum concentration ([1]; 3rd Child, sampling date 2011.2.24): 11.9 ng/mL | Serum concentration ([1]; 3rd Child, sampling date 2011.4.30): 12.1 ng/mL | Serum concentration ([1]; 3rd Child, sampling date 2011.6.13): 11.5 ng/mL | Serum concentration ([1]; 3rd Child, sampling date 2011.9.27): 4.8 ng/mL | Serum concentration ([1]; 3rd Child, sampling date 2012.10.16): 17.1 ng/mL | Serum concentration ([1]; 3rd Child, sampling date 2012.1.8): 20.8 ng/mL | Serum concentration ([1]; 3rd Child, sampling date 2012.12.9): 10.5 ng/mL | Serum concentration ([1]; 3rd Child, sampling date 2012.3.4): 25.4 ng/mL | Serum concentration ([1]; 3rd Child, sampling date 2012.4.28): 19.8 ng/mL | Serum concentration ([1]; 3rd Child, sampling date 2013.10.27): 12.2 ng/mL | Serum concentration ([1]; 3rd Child, sampling date 2013.2.5): 8.8 ng/mL | Serum concentration ([1]; 3rd Child, sampling date 2013.3.30): 8.0 ng/mL | Serum concentration ([1]; 3rd Child, sampling date 2013.5.5): 12.8 ng/mL | Serum concentration ([1]; 3rd Child, sampling date 2013.7.25): 13.4 ng/mL | Serum concentration ([1]; 3rd Child, sampling date 2013.9.8): 12.0 ng/mL | starting serum concentration relative to 95th percentile among Canadians ([1]; 3 youngest children): 3–5 fold | Serum concentration after treatment ([1]; 4th Child): 5.0 ng/mL | Serum concentration before treatment ([1]; 4th Child): 62.4 ng/mL | Serum concentration ([1]; 4th Child, sampling date 2010.1.24): 26.8 ng/mL | Serum concentration after treatment ([1]; Average of 6 family members): 6.7 ng/mL | Serum concentration before treatment ([1]; Average of 6 family members): 43.4 ng/mL | Serum concentration before treatment ([1]; Parent one): 15.1 ng/mL | Serum concentration ([1]; Parent one, sampling date 2009.10.11): 8.8 ng/mL | Serum concentration ([1]; Parent one, sampling date 2009.10.12): 9.2 ng/mL | Serum concentration ([1]; Parent one, sampling date 2009.11.12): 11.0 ng/mL | Serum concentration ([1]; Parent one, sampling date 2009.12.14): 8.6 ng/mL | Serum concentration ([1]; Parent one, sampling date 2009.2.2): 15.1 ng/mL | Serum concentration ([1]; Parent one, sampling date 2009.5.18): 13.2 ng/mL | Serum concentration ([1]; Parent one, sampling date 2009.6.1): 11.8 ng/mL | Serum concentration ([1]; Parent one, sampling date 2009.7.4): 9.8 ng/mL | Serum concentration ([1]; Parent one, sampling date 2009.9.1): 11.3 ng/mL | Serum concentration ([1]; Parent one, sampling date 2010.10.10): 6.1 ng/mL | Serum concentration ([1]; Parent one, sampling date 2010.1.17): 8.6 ng/mL | Serum concentration ([1]; Parent one, sampling date 2010.3.13): 6.8 ng/mL | Serum concentration ([1]; Parent one, sampling date 2011.1.6): 2.3 ng/mL | Serum concentration ([1]; Parent one, sampling date 2011.11.26): 1.4 ng/mL | Serum concentration ([1]; Parent one, sampling date 2011.2.24): 2.1 ng/mL | Serum concentration ([1]; Parent one, sampling date 2011.4.30): 1.5 ng/mL | Serum concentration ([1]; Parent one, sampling date 2011.6.22): 1.6 ng/mL | Serum concentration ([1]; Parent one, sampling date 2011.8.4): 1.3 ng/mL | Serum concentration ([1]; Parent one, sampling date 2011.9.27): 0.5 ng/mL | Serum concentration ([1]; Parent one, sampling date 2012..12.28): 0.66 ng/mL | Serum concentration ([1]; Parent one, sampling date 2012.1.14): 3.8 ng/mL | Serum concentration ([1]; Parent one, sampling date 2012.11.1): 1.7 ng/mL | Serum concentration ([1]; Parent one, sampling date 2012.3.4): 3.7 ng/mL | Serum concentration ([1]; Parent one, sampling date 2012.4.29): 2.7 ng/mL | Serum concentration ([1]; Parent one, sampling date 2012.7.8): 3.1 ng/mL | Serum concentration ([1]; Parent one, sampling date 2012.8.21): 3.1 ng/mL | Serum concentration ([1]; Parent one, sampling date 2013.10.27): 1.4 ng/mL | Serum concentration ([1]; Parent one, sampling date 2013.2.18): 1.3 ng/mL | Serum concentration ([1]; Parent one, sampling date 2013.3.30): 1.5 ng/mL | Serum concentration ([1]; Parent one, sampling date 2013.5.11): 2.5 ng/mL | Serum concentration ([1]; Parent one, sampling date 2013.7.15): 2.3 ng/mL | Serum concentration ([1]; Parent one, sampling date 2013.9.8): 1.4 ng/mL | Serum concentration before treatment ([1]; Parent two): 16.3 ng/mL | Serum concentration ([1]; Parent two, sampling date 2009.6.1): 16.3 ng/mL | Serum concentration ([1]; Parent two, sampling date 2009.7.7): 10.9 ng/mL | Serum concentration ([1]; Parent two, sampling date 2009.8.24): 10.4 ng/mL | Serum concentration ([1]; Parent two, sampling date 2010.1.3): 5.7 ng/mL | Serum concentration ([1]; Parent two, sampling date 2010.4.11, LOD=0.5ng/mL): 4.4 ng/mL | Serum concentration ([1]; Parent two, sampling date 2012.3.13): 4.1 ng/mL | Serum concentration ([1]; Parent two, sampling date 2013.1.1): 2.5 ng/mL | Serum concentration ([1]; Parent two, sampling date 2013.10.6): 11.0 ng/mL | Serum concentration ([1]; Parent two, sampling date 2013.6.22): 3.4 ng/mL | HLin of fastest eliminator in the reference population ([2]; reference population of occupationally exposed retirees (26 individuals)): 2.4 yrs | 95% confidence interval of the geometric mean HLin ([2]; reference population of occupationally exposed retirees): 4.0–5.8 yrs | intrinsic human elimination half-life (HLin) ([2]; serum, highly contaminated retirees >55 yrs, previously occupationally exposed): 5.4 years | HLin, 95% confidence interval ([2]; serum, retirees >55 yrs, previously occupationally exposed): 3.9–6.9 yrs | HLapp ([3]; males and post-menopausal females): 27 years | HLapp ([3]; reproductive-aged females): 6.2 years | 95th percentile of serum concentration among Canadians [4]: 18 ng/mL | HLapp compared with geometric mean HLin of reference population [5]: significantly shorter
